PMC4792926, “G9a-mediated methylation of ERα links the PHF20/MOF histone acetyltransferase complex to hormonal gene expression” (Nature Communications, 2016)
“Also recorded” adds a separate entry of the source.

Assays:
[1] = system: G9a, PHF20 and ERα protein levels; assay: Western blot of total G9a, PHF20 and ERα in whole cell extract, HEK-293T cells; type: cell-based, human; settings: 24 h; WCE western blot
Description: (§1) Human MCF-7, T-47D, U2OS and HEK293T cells (ATCC) were cultured in DMEM (Cellgro) supplemented with 10% fetal bovine serum (FBS, Sigma). For G9a inhibitor treatment, BIX-01294 (Sigma) was added to the medium, at the indicated concentrations, 24 h before the cells were collected. For shRNA knockdown, 293T cells were co-transfected with pMD2.G and pPAX2 (Addgene) together with pLKO-shRNA constructs or a non-targeting pLKO-shRNA (pLKO-shCtrl). Viral supernatants were harvested after 48 h. For infections, MCF-7 or T-47D cells were incubated with viral supernatants in the presence of 8 μg ml^−1 polybrene. After 48 h, puromycin (2 μg ml^−1) was added to the DMEM. Cells were grown, with selection for 5–7 days to select for stable knockdown cells before oestrogen treatment. For oestrogen treatment, cells were starved in phenol red-free DMEM supplemented with 10% charcoal-stripped FBS (Sigma) for 3–4 days, and 10 nM 17β-estradiol (Sigma) or ethanol (vehicle) were added to the medium (3 or 6 h for gene expression studies, and 15 and 45 min for ChIP experiments) before the cells were collected.

[2] = system: ERα target genes (GREB1, PR, TFF1); assay: qPCR of E2-induced ERα target gene expression in MCF-7 cells; type: cell-based, human
Description: as §1
(§2) Reverse transcription and real-time PCR were performed as described previously. mRNA was prepared using the RNeasy Plus kit (Qiagen) and reverse transcribed using the First Strand Synthesis kit (Invitrogen). Quantitative real-time RT–PCR (qPCR) was performed on an ABI 7500-FAST Sequence Detection System using the Power SYBR Green PCR Master Mix (Applied Biosystems). Gene expression was calculated following normalization to GAPDH levels using the comparative Ct (cycle threshold) method and is shown as ‘Fold' relative to the expression of each gene in the control cells without E2 treatment that was arbitrarily set as ‘1'. The primer sequences used for RT–PCR are listed in Supplementary Table 5.

MCF-7 cells [3] = assay: MCF-7 cell proliferation (cell counting); type: cell-based, human; settings: different doses; cell numbers counted for 6 days
Description: (§3) Human MCF-7, T-47D, U2OS and HEK293T cells (ATCC) were cultured in DMEM (Cellgro) supplemented with 10% fetal bovine serum (FBS, Sigma). For G9a inhibitor treatment, BIX-01294 (Sigma) was added to the medium, at the indicated concentrations, 24 h before the cells were collected. For shRNA knockdown, 293T cells were co-transfected with pMD2.G and pPAX2 (Addgene) together with pLKO-shRNA constructs or a non-targeting pLKO-shRNA (pLKO-shCtrl). Viral supernatants were harvested after 48 h. For infections, MCF-7 or T-47D cells were incubated with viral supernatants in the presence of 8 μg ml^−1 polybrene. After 48 h, puromycin (2 μg ml^−1) was added to the DMEM. […]
(a, b) Growth curves of control (shCtrl) and G9a knockdown (shG9a) MCF-7 cells. Cells from 6 wells were counted in triplicates every two days, for 8 days (a) or 6 days (b) after seeding.
(c, d) G9a is required for cell growth in colony formation assays. […] Colonies arising from control and G9 knockdown MCF-7 cells were counted two weeks after seeding (d)
(e) G9a depletion reduces the anchorage-independent growth of MCF-7 cells. […] After four weeks, colonies were counted. At least 5 fields of view were counted for each well.
(f) The catalytic activity of G9a is required for cell growth. MCF-7 cells treated with the indicated doses of BIX-01249 were counted 6 days after seeding. […]

MAGE-A2 = assay: qPCR of MAGE-A2, a G9a-repressed gene, in MCF-7 cells; type: cell-based, human; settings: 4 and 8 μM for 24 h, mean +/- S.E.M. of two experiments
Description: as §3, with “DMEM. Cells were grown, with selection for 5–7 days to select for stable knockdown cells before oestrogen treatment.” for “DMEM.”
as §2, with “The primer sequences used for RT–PCR are listed in Supplementary Table 5.” left out

G9a = settings: cited from earlier work
Excerpt: Next, we sought to determine whether the methyltransferase activity of G9a is required for its co-activation of endogenous ERα target genes. […] (Supplementary Fig. 2a,b). Importantly, under these conditions, although a res ...

PHF20–ERα interaction = assay: Co-IP of ERα and PHF20 in HEK-293T cells; type: cell-based, human; settings: 24 h before co-IP; Flag-ERα and Myc-PHF20 co-transfected HEK-293T
Description: as §1
For immunoprecipitation (IP) experiments, each cell fraction was incubated with the anti-FLAG M2-conjugated agarose beads overnight at 4 °C. The beads were washed 3–6 times with cell lysis buffer, and the bound proteins were eluted in SDS buffer and analysed by western blot. […]

MCF-7 cells [4] = assay: Colony formation assay, MCF-7; type: cell-based, human
Description: MCF-7 cells treated with shRNAs or BIX-01294 were seeded in six-well plates (1,000 cells per well) and grown in DMEM plus 10% FBS at 37 °C for 10–14 days. For anchorage-independent cell growth assays, 4,000 MCF-7 cells were suspended in DMEM containing 0.4% agar and seeded into six-well plates pre-coated with a base layer of 0.6% agar and grown at 37 °C for 4 weeks. Cells were fixed, stained with 0.005% crystal violet blue and photographed. Colony numbers were counted using ImageJ software with size cutoff of 75 μm. Results were quantitated from three to six wells or three to five views of each well from three independent replicates.

endogenous G9a = assay: Global histone H3K9me2 western blot (endogenous G9a activity) in MCF-7 cells; type: cell-based, human; settings: 4 and 8 μM for 24 h
Description: as §1

## COc1cc2nc(N3CCCN(C)CC3)nc(NC3CCN(Cc4ccccc4)CC3)c2cc1OC [BIX-01294]
[1]
  total levels of G9a, PHF20 and ERα: not affected
[2]; 4 or 8 μM BIX-01294, 10 nM E2 for 3 h, qPCR, two experiments
  E2-induced activation of GREB1 and PR under BIX-01294: clearly impaired by BIX-01294 in a dose-dependent manner; also recorded: inhibits E2-induced activation of GREB1 and PR
[2]; BIX-01294-treated MCF-7 cells, E2
  residual E2-dependent response under BIX-01294: a residual E2 response was sufficient to maintain GREB1 gene expression; also recorded: there was still an E2-dependent response
[2]; MCF-7, BIX-01294-treated (discussion)
  E2-dependent gene activation under BIX-01294: greatly reduced E2-dependent gene activation
MCF-7 cells [3]
  cell proliferation: inhibited cell proliferation in a dose-dependent manner
MAGE-A2
  derepression of MAGE-A2: derepression of MAGE-A2; also recorded: induces the derepression
G9a
  G9a inhibition selectivity: selective G9a inhibitor
PHF20–ERα interaction
  PHF20–ERα interaction: markedly diminished the PHF20–ERα interaction; also recorded: diminishes the interaction between ERα and PHF20 in cells
MCF-7 cells [4]; 0.5 or 1 μM, 10–14 days, crystal violet
  colony formation: greatly suppressed colony formation
MCF-7 cells [4]; indicated doses, MCF-7 colonies, at least three experiments
  cell survival: inhibits cell survival
Endogenous G9a
  enzymatic activity of endogenous G9a (global H3K9 methylation levels): effectively inhibited; also recorded: reduces global H3K9me2 levels
